Entries after “also recorded” stand apart in the source; their conditions may differ.
Columns and labels:
[1] = tested on: COLO205 human colorectal adenocarcinoma xenografts; experiment: In vivo antitumor activity of Compound 1 and irradiation in nude mice; set-up: species or system mouse; conditions: Compound 1 40 mg/kg orally once daily Day 1-14 combined with irradiation 3 Gy on Day 1, 2, 3, 8, 9, 10
Description: Human colorectal carcinoma cell line, COLO205 xenograft model was established by subcutaneous injection of cell suspension (5×10^6 cells/100 μl/site, in 1:1 mixture of Hanks' balanced salt and BD Matrigel™ Matrix (BD biosciences)). Mice with tumor size of approximately 200 mm^3 were randomly assigned to dose groups on the day before start date of dosing (Day 0). Compound 1 was suspended in 0.5 w/v % methylcellulose and administered orally to mice at a dose of 40 mg/kg once daily on Day 1-14. Mice in irradiation groups were irradiated at a dose of 3 Gy daily on Day 1, 2, 3, 8, 9 and 10 under pentobarbital anesthesia. Tumors on the flanks of the mice were irradiated using an X-ray irradiator (MBR-1520R-3, Hitachi Power Solutions Co., Ltd., Ibaraki) and non-tumor part of mice were shielded by lead plate. Tumor size was measured by caliper and tumor volume was estimated using the equation V=(LW^2)/2, where L and W are tumor length and width, respectively and reported in cubic millimeters (FIG. 3).

[2] = tested on: B16F10 (Melanoma); experiment: In vivo combination study, syngeneic mouse tumor isograft model; conditions: note to Table 9
[3] = tested on: A20 (Lymphoma); experiment: as above; conditions: note to Table 9
[4] = tested on: repair of IR-induced DSBs in HeLa cells; experiment: 53BP1 foci assay of irradiation-induced DNA double-strand breaks; type: cell-based, human
Description: Human cervical adenocarcinoma HeLa cells were treated with or without Compound 1 treatment at 300 nM, followed by irradiation (IR) treatment at 4 Gy using an X-ray irradiator (MBR-1520R-3, Hitachi Power Solutions Co., Ltd., Ibaraki). Eight or forty-eight hours after IR treatment, the cells were fixed with 4% paraformaldehyde for the following immunofluorescent experiments. Foci formation of 53BP1 was used as an index of IR-induced DSBs. After permeabilization, the cells were incubated with anti-53BP1 antibody (2 μg/ml) for 60 min at 37° C., and then incubated with Alexa-594-conjugated secondary antibody for 30 min at 37° C. Images were captured with an Axiovert 200M microscope (Carl Zeiss).

[5] = tested on: RNASEH2A knockout (KO) TK-6 cells and parental TK-6 cells; experiment: In vitro growth inhibition assay, Cell Titer-Glo, 72 hours; type: cell-based; conditions: FIG. 9
Description: To determine further whether RNASEH2A is involved in the sensitization to compound 1, in vitro growth inhibition assay of compound 1 was carried out in RNASEH2A knockout (KO) TK-6 cells and its counterpart parental TK-6 cells. RNASEH2A KO TK-6 cells and its counterpart parental TK-6 cells were obtained from Kyoto University under a material transfer agreement. The cell lines were cultured in RPMI-1640 medium (FUJIFILM Wako Pure Chemical Corporation, Osaka, JAPAN) supplied with 10% Fetal Bovine Serum (CORNING Inc., NY, USA), sodium pyruvate (FUJIFILM Wako Pure Chemical Corporation, Osaka, JAPAN), and Penicillin-Streptomycin (FUJIFILM Wako Pure Chemical Corporation, Osaka, JAPAN). Stock solutions of compound 1 were prepared in dimethyl sulfoxide (DMSO), and stored at approximately −20 deg C.
Cell proliferation was measured by using Cell Titer-Glo Luminescent Cell Viability Assay (Promega, WI, USA.). The CellTiter-Glo Luminescent Cell Viability Assay is a homogeneous method of determining the number of viable cells in culture based on quantitation of the ATP present, which signals the presence of metabolically active cells. […] Luminescence of each well was measured by EnVision™ (PerkinElmer Inc., MA, USA). Taking as 100% the ATP content for the DMSO treatment control group, the ratio of the residual ATP content for each treatment group was determined. […]

Cc1[nH]ncc1-c1cc2nc([C@@H]3CC4CCN3CC4)[nH]c(=O)c2s1 [Compound 1, 2-[(2S)-1-azabicyclo[2.2.2]oct-2-yl]-6-(3-methyl-1H-pyrazol-4-yl)thieno[3,2-d]pyrimidin-4(3H)-one] was tested, and the “antitumor activity (tumor volume)” value [1] was “strong antitumor activity and enhanced antitumor efficacy compared to either single treatment alone”, the CR per group ([2]; by note order: Anti-mPD-1 study in B16F10 (67 mm^3)) was 0 CR in PD-1 group and 0 CR in Compound 1 group, and 0 CR in Compound 1/PD-1 combo group and the CR per group ([2]; by note order: NKTR-214 + anti-mPD-1 study in B16F10 (67 mm^3)) was 0 CR in NKTR-214 + PD-1 group, and 0 CR in Compound 1 group, and 0 CR in Compound 1/NKTR-214/PD-1 triple combo group. The CR per group ([2]; by note order: NKTR-214 study in B16F10 (67 mm^3)) was “no CR”, the CR per group ([3]; by note order: Anti-mPD-1 study in A20 (61 mm^3)) was 1 and the CR per group ([3]; by note order: NKTR-214 + anti-mPD-1 study in A20 (61 mm^3)) was 1. For the same compound, the CR per group ([3]; by note order: NKTR-214 study in A20 (61 mm^3)) was 1, the “repair of IR-induced DSBs” value ([4]; 300 nM Compound 1 + IR 4 Gy, HeLa cells) was “delays repair of IR-induced DSBs; also recorded: delays repair of irradiation induced double-strand breaks (DSBs)” and the “53BP1 foci-positive cells (≥10 foci/cell)” value ([4]; co-treated with IR 4 Gy and Compound 1 300 nM, 48 h after IR treatment, HeLa) was “still observed with high frequency”. The “sensitivity (growth inhibition) of RNASEH2A KO TK-6 cells versus WT TK-6 cells” value [5] was “more sensitive”.

Reference: patent US20220323443A1, “COMBINATION THERAPY FOR CANCER TREATMENT” (TAKEDA PHARMACEUTICAL COMPANY LIMITED, priority 2019, published 2022)
